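Each compound was tested at five concentrations against cells in 96-well plates for 48 hours. GI50: concentration for 50% inhibition of growth.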 Activity calls are given as the source filed them. No stated cut-off is given here; in the data, active = GI50 up to about 1.1 µM and inactive = higher.
Columns and labels:
Assay in all cases: DTP human tumour cell line panel, 48 h
MDA-N = system: MDA-N
786-0 = system: 786-0
Malme-3M = system: Malme-3M
NCI-H226 = system: NCI-H226
MDA-MB-231 = system: MDA-MB-231
SK-MEL-2 = system: SK-MEL-2
UACC-257 = system: UACC-257
HT-29 = system: HT-29
RPMI-8226 = system: RPMI-8226
SF-295 = system: SF-295
A498 = system: A498
ACHN = system: ACHN
HCT-15 = system: HCT-15
SW-620 = system: SW-620
LOX IMVI = system: LOX IMVI
MDA-MB-435 = system: MDA-MB-435
UO-31 = system: UO-31
A549 = system: A549
U-251 = system: U-251
HCC 2998 = system: HCC 2998

Row | SMILES | GI50 (MDA-N) | GI50 (786-0) | GI50 (Malme-3M) | GI50 (NCI-H226) | GI50 (MDA-MB-231) | GI50 (SK-MEL-2) | GI50 (UACC-257) | GI50 (HT-29) | GI50 (RPMI-8226) | GI50 (SF-295) | GI50 (A498) | GI50 (ACHN) | GI50 (HCT-15) | GI50 (SW-620) | GI50 (LOX IMVI) | GI50 (MDA-MB-435) | GI50 (UO-31) | GI50 (A549) | GI50 (U-251) | GI50 (HCC 2998)
1 | Cc1ccc2c(=O)c(-c3n[nH]c(=S)s3)c[nH]c2n1 | > 100 µM (inactive) | > 100 µM (inactive) | > 100 µM (inactive) | > 100 µM (inactive) | > 100 µM (inactive) | > 100 µM (inactive) | > 100 µM (inactive) | > 100 µM (inactive) | > 100 µM (inactive) | > 100 µM (inactive) | > 100 µM (inactive) | > 100 µM (inactive) | > 100 µM | > 100 µM (inactive) | > 100 µM (inactive) | > 100 µM (inactive) | > 100 µM (inactive) | > 100 µM (inactive) | > 100 µM (inactive) | 
2 | O=c1c2ccccc2nc(Nc2cccc(Cl)c2)n1/N=C/C=C/c1ccccc1 | > 100 µM (inactive) | 48.5 µM (inactive) | > 100 µM (inactive) | 99.5 µM (inactive) | 71 µM (inactive) | > 100 µM (inactive) | 85.9 µM (inactive) | 61.9 µM (inactive) | > 100 µM (inactive) | 60 µM (inactive) |  | 50.7 µM (inactive) | > 100 µM | 51.5 µM (inactive) | > 100 µM (inactive) | > 100 µM (inactive) | > 100 µM (inactive) | 75.3 µM (inactive) | 28.8 µM (inactive) | 94 µM (inactive)
3 | Cc1ccc(I)cc1N=C=S | 27.9 µM (inactive) | 23.6 µM (inactive) | 25.1 µM (inactive) | 18.3 µM (inactive) | 28.2 µM (inactive) | 17.8 µM (inactive) | 25 µM (inactive) | 23.5 µM (inactive) | 20.8 µM (inactive) | 26.9 µM (inactive) | 21.2 µM (inactive) | 22.8 µM (inactive) | 17.8 µM | 32.7 µM (inactive) | 22.2 µM (inactive) | 23.1 µM (inactive) | 17.3 µM (inactive) | 28.6 µM (inactive) | 19.5 µM (inactive) | 
4 | O=[N+]([O-])c1ccc2c3c1[C@H]1O[C@H]1c1cccc(c1-3)[C@@H]1O[C@H]21 | 2.17 µM (inactive) | 1.96 µM (inactive) | 2.4 µM (inactive) | 45.9 µM (inactive) | 2.01 µM (inactive) | 2.52 µM (inactive) | 1.82 µM (inactive) | 2.01 µM (inactive) | 1.23 µM (inactive) | 3.5 µM (inactive) | 2.31 µM (inactive) | 2.22 µM (inactive) | 1.71 µM | 0.951 µM (active) | 0.305 µM (active) | 1.85 µM (inactive) | 2 µM (inactive) | 3.2 µM (inactive) | 1.8 µM (inactive) | 
5 | COc1cc2[nH]c(=O)c3cc(C)cc4c(Cl)nc(c1OC)c2c43 | > 100 µM (inactive) | 20 µM (inactive) | 18 µM (inactive) | 45.7 µM (inactive) | 76.6 µM (inactive) | 32.9 µM (inactive) | > 100 µM (inactive) | 89.9 µM (inactive) | 34.9 µM (inactive) | 43.7 µM (inactive) |  | 40.6 µM (inactive) | > 100 µM | > 100 µM (inactive) | 53.2 µM (inactive) | 57.3 µM (inactive) | > 100 µM (inactive) | 45.7 µM (inactive) | 38.6 µM (inactive) | > 100 µM (inactive)
6 | COC(c1ccsc1)C(C#N)(C#N)/N=C/c1ccsc1 (stereo not drawn) | 16 µM (inactive) | 17.3 µM (inactive) | 15.3 µM (inactive) | 21.6 µM (inactive) | 7.4 µM (inactive) | 19 µM (inactive) | 14.7 µM (inactive) | 12.5 µM (inactive) |  | 18.1 µM (inactive) | 14.9 µM (inactive) | 18.7 µM (inactive) | 13 µM | 14.6 µM (inactive) | 10.3 µM (inactive) | 15.5 µM (inactive) | 13.4 µM (inactive) | 30.5 µM (inactive) | 17.3 µM (inactive) | 19.8 µM (inactive)
7 | O=C1Nc2ccccc2/C1=N\c1cccc2ncccc12 | 34.5 µM (inactive) | > 100 µM (inactive) | > 100 µM (inactive) | > 100 µM (inactive) | > 100 µM (inactive) | > 100 µM (inactive) | 41 µM (inactive) | 58.3 µM (inactive) | 36.5 µM (inactive) | 53.3 µM (inactive) | > 100 µM (inactive) | > 100 µM (inactive) | 68.1 µM | > 100 µM (inactive) | 27.4 µM (inactive) | 20 µM (inactive) | > 100 µM (inactive) | 81.5 µM (inactive) | 67.5 µM (inactive) | 
8 | C=C1C[C@@H]2O[C@H]3[C@H]4[C@@H](C[C@@H](C)[C@@H](OC(C)=O)[C@H]42)[C@@H](C)CO[C@@]3(C)[C@H](OC(C)=O)C[C@H]1O | 40.5 µM (inactive) | > 100 µM (inactive) | > 100 µM (inactive) | > 100 µM (inactive) | > 100 µM (inactive) | > 100 µM (inactive) | > 100 µM (inactive) | 63.2 µM (inactive) |  | > 100 µM (inactive) | > 100 µM (inactive) | > 100 µM (inactive) | > 100 µM | 55.6 µM (inactive) | 17.1 µM (inactive) | 33 µM (inactive) | 77.6 µM (inactive) | > 100 µM (inactive) | > 100 µM (inactive) | > 100 µM (inactive)
9 | O=C(O)/C=C/C=C/c1ccc2c(c1)OCO2 [PIPERIC ACID] | > 100 µM (inactive) | > 100 µM (inactive) | > 100 µM (inactive) | > 100 µM (inactive) | > 100 µM (inactive) | > 100 µM (inactive) | > 100 µM (inactive) | > 100 µM (inactive) | > 100 µM (inactive) | > 100 µM (inactive) | > 100 µM (inactive) | > 100 µM (inactive) | > 100 µM | > 100 µM (inactive) | > 100 µM (inactive) | > 100 µM (inactive) | > 100 µM (inactive) | > 100 µM (inactive) | > 100 µM (inactive) | 
10 | COc1cc(NC(C)CCCN)c2nccc(C)c2c1 (stereo not drawn) | 18.9 µM (inactive) | 19 µM (inactive) | 20 µM (inactive) |  | > 10 µM (inactive) | 19.2 µM (inactive) |  | 31.9 µM (inactive) | 20.9 µM (inactive) | 15.3 µM (inactive) |  | 26.6 µM (inactive) | 21.3 µM |  |  | 16.7 µM (inactive) | 15.6 µM (inactive) | 55.7 µM (inactive) | 19.6 µM (inactive) | 19.9 µM (inactive)
11 | CCOC(=O)C(NC(=O)c1ccccc1)(Nc1ccc(S(=O)(=O)Nc2nc(C)cc(C)n2)cc1)C(F)(F)F (stereo not drawn) | > 100 µM (inactive) | > 100 µM (inactive) | > 100 µM (inactive) | > 100 µM (inactive) | 86.5 µM (inactive) | > 100 µM (inactive) | > 100 µM (inactive) | > 100 µM (inactive) | > 100 µM (inactive) | > 100 µM (inactive) |  | > 100 µM (inactive) | > 100 µM | > 100 µM (inactive) | > 100 µM (inactive) | > 100 µM (inactive) | > 100 µM (inactive) | > 100 µM (inactive) | > 100 µM (inactive) | > 100 µM (inactive)
12 | C1CSCCSCCCSC2CCCCC2SC1 (stereo not drawn) | > 100 µM (inactive) | > 100 µM (inactive) |  |  | 60 µM (inactive) |  | > 100 µM (inactive) | 25.4 µM (inactive) | 45.4 µM (inactive) | > 100 µM (inactive) |  |  | > 100 µM | > 100 µM (inactive) | > 100 µM (inactive) | > 100 µM (inactive) | > 100 µM (inactive) | > 100 µM (inactive) | > 100 µM (inactive) | > 100 µM (inactive)
13 | COC1=Nc2ccccc2S(=O)(=O)C=C1 | 7.4 µM (inactive) | 3.29 µM (inactive) | 2.5 µM (inactive) | > 87.3 µM (inactive) | 13.2 µM (inactive) | 16.6 µM (inactive) | 7.69 µM (inactive) | 9.89 µM (inactive) |  | > 45.4 µM (inactive) | 16.8 µM (inactive) | 3.07 µM (inactive) | 3.42 µM | 1.73 µM (inactive) | 2.84 µM (inactive) | 11.4 µM (inactive) | 5.46 µM (inactive) | 18.2 µM (inactive) | 11.4 µM (inactive) | 21.4 µM (inactive)
14 | CC(C)(C)c1ccccc1N1C(=O)c2ccc3c4c(ccc(c24)C1=O)N(c1ccccc1C(C)(C)C)C3=O | > 100 µM (inactive) | > 100 µM (inactive) |  |  | > 100 µM (inactive) | > 100 µM (inactive) | > 100 µM (inactive) | > 100 µM (inactive) | > 100 µM (inactive) | 71.3 µM (inactive) |  | > 100 µM (inactive) | > 100 µM | > 100 µM (inactive) |  | > 100 µM (inactive) | > 100 µM (inactive) | > 100 µM (inactive) | > 100 µM (inactive) | > 100 µM (inactive)
15 | O=C(NCCC1CNc2ccccc21)OCc1ccccc1 (stereo not drawn) | > 100 µM (inactive) | > 100 µM (inactive) | > 100 µM (inactive) |  | > 100 µM (inactive) | > 100 µM (inactive) | > 100 µM (inactive) | > 100 µM (inactive) | > 100 µM (inactive) | > 100 µM (inactive) | > 100 µM (inactive) | > 100 µM (inactive) | > 100 µM | > 100 µM (inactive) |  | > 100 µM (inactive) | > 100 µM (inactive) | > 100 µM (inactive) | > 100 µM (inactive) | > 100 µM (inactive)
